Data: the supplement of paper PMC8882468

Experiments:
Assay in all cases: CTG-3D luminescence at 96 h relative to day-0 seeding control (ratio to day 0); higher = more growth / less cytotoxicity; PDxO 3D drug screen (set 2), 96 h, CTG-3D normalised to day-0 seeding control.
[1] = test system: HCI-005.E2 (organoid from a breast cancer xenograft with a HER2-positive history)
[2] = test system: HCI-010 (organoid from a breast cancer xenograft)
[3] = test system: HCI-011.E2 (organoid from an ER-positive breast cancer xenograft)
[4] = test system: HCI-012 (organoid from a breast cancer xenograft)
[5] = test system: HCI-016 (organoid from a triple-negative breast cancer xenograft)
[6] = test system: HCI-017.E2 (organoid from an ER-positive breast cancer xenograft)

CS(=O)(=O)CCNCc1ccc(-c2ccc3ncnc(Nc4ccc(OCc5cccc(F)c5)c(Cl)c4)c3c2)o1 [lapatinib]
CTG-3D luminescence at 96 h
Settings | 12.5 pM | 0.00025 µM | 0.005 µM | 0.1 µM | 1 µM | 10 µM | 100 µM | 625 fM
[1] | 1.84 | 2.04 | 2.54 | 2.55 | 2.58 | 0.551 | 0.00117 | 2.11
[3] | 1.6 | 1.63 | 1.26 | 1.72 | 1.57 | 0.982 | 0.0218 | 2.23
[6] | 2.11 | 2.75 | 2.4 | 2.37 | 1.95 | 0.905 | 0.00683 | 2.65

CTG-3D luminescence at 96 h
Settings | 12.5 pM | 0.00025 µM | 0.005 µM | 0.1 µM | 1 µM | 10 µM | 100 µM | 625 fM
[2], days in culture: 79 | 1.89 | 1.81 | 2.03 | 2.16 | 2.02 | 0.69 | -0.00188 | 2.06
[2], days in culture: 86 | 2.21 | 2.38 | 2.53 | 2.49 | 2.33 | 0.631 | 0.0027 | 2.48
[2], days in culture: 102 | 1.1 | 1.16 | 1.11 | 1.32 | 1.48 | 0.154 | 8.25e-05 | 1.09
[2], days in culture: 164 | 1.78 | 1.5 | 1.5 | 1.46 | 1.78 | 0.353 | 0.000987 | 1.63
[3], days in culture: 74 | 2.75 | 2.14 | 2.07 | 2.34 | 1.66 | 0.607 | -0.00505 | 2.76
[4], days in culture: 214 | 2.69 | 3.04 | 1.24 | 2.07 | 1.18 | 0.474 | 0.0116 | 2.99
[4], days in culture: 243 | 2.16 | 2.36 | 2.03 | 2.3 | 1.73 | 1.17 | 0.00575 | 2.33
[4], days in culture: 256 | 1.96 | 2.5 | 2.14 | 2.69 | 1.63 | 1.22 | 0.0102 | 2.35
[4], days in culture: 284 | 1.64 | 2.45 | 1.64 | 2.11 | 1.41 | 0.504 | -0.00107 | 3.12
[5], days in culture: 305 | 2.19 | 2.44 | 2.88 | 3.72 | 1.92 | 0.286 | -0.00685 | 4
[5], days in culture: 327 | 1.07 | 0.931 | 1.47 | 1.74 | 1.12 | 0.284 | 0.000753 | 2.05
[5], days in culture: 341 | 2.29 | 1.62 | 2.18 | 1.86 | 1.6 | 0.474 | -0.00181 | 2.42
[5], days in culture: 397 | 1.92 | 2.19 | 2.02 | 2.38 | 1.32 | 0.254 | -0.000202 | 2.47
[6], days in culture: 85 | 2.34 | 1.93 | 1.68 | 2.32 | 1.61 | 0.581 | 0.0189 | 2.45

CCOc1ccn(-c2ccc(F)cc2)c(=O)c1C(=O)Nc1ccc(Oc2ccnc(N)c2Cl)c(F)c1 [ASLAN002]
CTG-3D luminescence at 96 h
Settings | 12.5 pM | 0.00025 µM | 0.005 µM | 0.1 µM | 1 µM | 10 µM | 100 µM | 625 fM
[1] | 1.72 | 2.16 | 2.37 | 2.74 | 2.59 | 2.35 | 1.45 | 2.25
[3] | 1.61 | 1.78 | 1.28 | 1.76 | 1.41 | 2.11 | 1.39 | 2.23
[6] | 2.06 | 2.58 | 2.12 | 2.27 | 2.14 | 2.39 | 1.17 | 2.34

CTG-3D luminescence at 96 h
Settings | 12.5 pM | 0.00025 µM | 0.005 µM | 0.1 µM | 1 µM | 10 µM | 100 µM | 625 fM
[2], days in culture: 79 | 1.78 | 1.68 | 1.94 | 2.05 | 1.8 | 1.55 | 0.742 | 1.97
[2], days in culture: 86 | 2.24 | 2.35 | 2.82 | 2.77 | 2.48 | 2.23 | 0.77 | 2.51
[2], days in culture: 102 | 1.1 | 1.26 | 1.21 | 1.48 | 1.41 | 1.14 | 0.252 | 0.941
[2], days in culture: 164 | 1.62 | 1.61 | 1.72 | 1.74 | 1.66 | 1.3 | 0.248 | 1.36
[3], days in culture: 74 | 2.83 | 2.42 | 2.58 | 2.8 | 2.58 | 2.52 | 1.66 | 2.28
[4], days in culture: 214 | 1.99 | 2.84 | 1.41 | 1.72 | 1.55 | 2.81 | 0.653 | 2.47
[4], days in culture: 243 | 1.95 | 2.84 | 1.9 | 2.45 | 2.19 | 3.71 | 1.7 | 2.43
[4], days in culture: 256 | 1.93 | 1.9 | 1.8 | 2.77 | 1.71 | 1.78 | 1.29 | 2.4
[4], days in culture: 284 | 1.86 | 2.58 | 1.82 | 2.49 | 2.18 | 2.98 | 1.4 | 2.81
[5], days in culture: 305 | 1.62 | 3.6 | 3.65 | 4.35 | 2.71 | 1.97 | 2.68 | 3.43
[5], days in culture: 327 | 0.8 | 1.78 | 1.32 | 1.46 | 1.87 | 1.58 | 1.05 | 1.72
[5], days in culture: 341 | 1.97 | 1.78 | 2.09 | 2.6 | 1.97 | 2 | 0.676 | 2.26
[5], days in culture: 397 | 1.73 | 2.37 | 1.99 | 2.59 | 2.39 | 2.98 | 0.779 | 2.52
[6], days in culture: 85 | 2.5 | 1.78 | 1.94 | 2.7 | 2.23 | 1.93 | 1.32 | 2.13

Nc1cc(C(F)(F)F)c(-c2cc(N3CCOCC3)nc(N3CCOCC3)n2)cn1 [buparlisib]
CTG-3D luminescence at 96 h
Settings | 12.5 pM | 0.00025 µM | 0.005 µM | 0.1 µM | 1 µM | 10 µM | 100 µM | 625 fM
[1] | 1.84 | 2.58 | 2.64 | 3.03 | 1.45 | 0.703 | 0.594 | 2.11
[3] | 1.59 | 1.75 | 1.23 | 1.38 | 0.772 | 0.191 | 0.0881 | 2.09
[6] | 1.864 | 2.59 | 2.12 | 2.15 | 0.869 | 0.263 | 0.208 | 2.26

CTG-3D luminescence at 96 h
Settings | 12.5 pM | 0.00025 µM | 0.005 µM | 0.1 µM | 1 µM | 10 µM | 100 µM | 625 fM
[2], days in culture: 79 | 1.69 | 1.83 | 1.84 | 1.83 | 1.02 | 0.456 | 0.0891 | 2
[2], days in culture: 86 | 2 | 2.29 | 2.49 | 2.33 | 1.36 | 0.525 | 0.146 | 2.19
[2], days in culture: 102 | 1.08 | 1.24 | 1.36 | 1.38 | 0.738 | 0.309 | 0.0336 | 0.982
[2], days in culture: 164 | 1.62 | 1.52 | 1.57 | 1.65 | 1.04 | 0.556 | 0.11 | 1.37
[3], days in culture: 74 | 2.23 | 1.9 | 1.83 | 2.23 | 0.711 | 0.135 | 0.0559 | 2.32
[4], days in culture: 214 | 1.75 | 3.34 | 1.48 | 2.51 | 1.02 | 0.314 | 0.0491 | 2.11
[4], days in culture: 243 | 1.8 | 2.97 | 2.35 | 2.4 | 1.59 | 0.242 | 0.0324 | 2.37
[4], days in culture: 256 | 2.19 | 2.45 | 2.12 | 2.99 | 1.05 | 0.138 | 0.0266 | 1.97
[4], days in culture: 284 | 1.86 | 2.37 | 1.96 | 2.4 | 1.3 | 0.282 | 0.0339 | 3.54
[5], days in culture: 305 | 2.89 | 2.88 | 2.23 | 4.87 | 1.89 | 0.444 | 0.606 | 5.12
[5], days in culture: 327 | 1.19 | 1.21 | 1.32 | 2.02 | 1.16 | 0.497 | 0.431 | 1.23
[5], days in culture: 341 | 2.17 | 1.78 | 2.04 | 2.44 | 1.48 | 0.65 | 0.484 | 2.59
[5], days in culture: 397 | 1.77 | 2.39 | 1.33 | 2.74 | 1.41 | 0.71 | 0.511 | 2.25
[6], days in culture: 85 | 2.1 | 1.79 | 1.67 | 1.9 | 0.668 | 0.194 | 0.256 | 2.53

CO[C@H]1C[C@@H]2CC[C@@H](C)[C@@](O)(O2)C(=O)C(=O)N2CCCC[C@H]2C(=O)O[C@H]([C@H](C)C[C@@H]2CC[C@@H](OCCO)[C@H](OC)C2)CC(=O)[C@H](C)/C=C(\C)[C@@H](O)[C@@H](OC)C(=O)[C@H](C)C[C@H](C)/C=C/C=C/C=C/1C [everolimus]
CTG-3D luminescence at 96 h
Settings | 12.5 pM | 0.00025 µM | 0.005 µM | 0.1 µM | 1 µM | 10 µM | 100 µM | 625 fM
[1] | 1.05 | 1.43 | 1.45 | 1.18 | 0.769 | 0.653 | -0.000603 | 1.6
[3] | 0.746 | 0.907 | 0.684 | 0.675 | 0.247 | 0.327 | -4.7e-05 | 1.14
[6] | 1.59 | 1.63 | 1.8 | 1.25 | 0.822 | 0.73 | 0.00266 | 1.99

CTG-3D luminescence at 96 h
Settings | 12.5 pM | 0.00025 µM | 0.005 µM | 0.1 µM | 1 µM | 10 µM | 100 µM | 625 fM
[2], days in culture: 79 | 1.18 | 1.21 | 1.18 | 1.28 | 1.13 | 1.12 | -0.00276 | 1.31
[2], days in culture: 86 | 1.76 | 1.9 | 1.53 | 1.19 | 0.809 | 0.648 | -0.000872 | 2.35
[2], days in culture: 102 | 1.16 | 0.848 | 0.691 | 0.497 | 0.337 | 0.158 | -0.000165 | 1.13
[2], days in culture: 164 | 1.53 | 1.42 | 1.25 | 0.906 | 0.778 | 0.581 | 0.000191 | 1.52
[3], days in culture: 74 | 2.42 | 2.16 | 1.14 | 0.719 | 0.223 | 0.141 | -0.0134 | 2.48
[4], days in culture: 214 | 2.76 | 1.49 | 1.21 | 1.84 | 1.41 | 1.69 | -0.000454 | 2.25
[4], days in culture: 243 | 1.34 | 2.16 | 1.46 | 1.87 | 1.38 | 2.11 | -0.000228 | 1.9
[4], days in culture: 256 | 2.03 | 1.8 | 1.71 | 2.19 | 1.42 | 1.38 | -0.00358 | 1.92
[4], days in culture: 284 | 1.39 | 1.69 | 1.18 | 1.72 | 0.508 | 0.327 | -0.00211 | 2.6
[5], days in culture: 305 | 1.91 | 2.37 | 1.91 | 2.63 | 1.49 | 1.46 | -0.0112 | 3.94
[5], days in culture: 327 | 0.724 | 1 | 1.4 | 1.68 | 0.673 | 1.5 | -0.00208 | 0.809
[5], days in culture: 341 | 1.86 | 1.39 | 1.69 | 1.34 | 1.18 | 1.47 | -0.00301 | 2.31
[5], days in culture: 397 | 2.02 | 1.53 | 1.5 | 1.31 | 0.567 | 0.757 | -0.000194 | 2.23
[6], days in culture: 85 | 2.06 | 1.86 | 1.32 | 0.959 | 0.595 | 0.493 | 0.00146 | 2.29
